The results in this text go back to patent US20070128217A1 (priority 2003, published 2007).

Assay [1] has as its system control sera (pooled serum of ten healthy LUMC hospital workers; commercial negative donor pooled serum from the Dutch bloodbank). It is filed as binding, human. Further details: Binding of Control serum LUMC to linear peptides / Binding of Control serum Blood-bank to linear peptides / Binding of Control serum LUMC to looped peptides / Binding of Control Serum Blood-Bank to Looped peptides / Binding of Control serum LUMC to linear peptides of the protein M of SARS-CoV Urbani / Binding of Control serum Blood-bank to linear peptides of the protein M of SARS-CoV Urbani / Binding of Control serum LUMC to looped peptides of the protein M of SARS-CoV Urbani / Binding of Control Serum Blood-Bank to Looped peptides of the protein M of SARS-CoV Urbani: unit not given here.

Assay [2] concerns antibodies in sera from SARS patients (sera 1a, 1b, 2, 6, 37, 62, London, SARS-yellow, SARS-green). The class given is binding, human. The arrangement: Binding of serum 6 to linear peptides of protein X1 of SARS-CoV Urbani / Binding of serum 37 to linear peptides of protein X1 of SARS-CoV Urbani / Binding of serum 6 to looped/cyclic peptide (PEPSCAN-ELISA) / Binding of serum 37 to looped/cyclic peptide (PEPSCAN-ELISA) / Binding of serum 37 to looped/cyclic peptides of protein X1 of SARS-CoV Urbani / Binding of serum 6 to linear peptides of protein X2 / Binding of serum 37 to linear peptides of protein X2 / Binding of serum 37 to looped/cyclic peptides of protein X2 of SARS-CoV Urbani / Binding of serum 6 to linear peptides of protein M of SARS-CoV Urbani / Binding of serum 37 to linear peptides of protein M of SARS-CoV Urbani / Binding of serum 6 to looped/cyclic peptides of protein M of SARS-CoV Urbani / Binding of serum 37 to looped/cyclic peptides of protein M of SARS-CoV Urbani / Binding of serum 6 to linear peptides of protein X3 of SARS-CoV Urbani / Binding of serum 37 to linear peptides of protein X3 of SARS-CoV Urbani / Binding of serum 37 to looped/cyclic peptides of protein X3 of SARS-CoV Urbani / Binding of serum 6 to linear peptides of protein X4 of SARS-CoV Urbani / Binding of serum 37 to linear peptides of protein X4 of SARS-CoV Urbani / Binding of serum 37 to looped/cyclic peptides of protein X4 of SARS-CoV Urbani / Binding of serum 6 to linear peptides of protein X5 of SARS-CoV Urbani / Binding of serum 37 to linear peptides of protein X5 of SARS-CoV Urbani / Binding of serum 37 to looped/cyclic peptides of protein X5 of SARS-CoV Urbani / Binding of serum 6 to linear peptides of protein N of SARS-CoV Urbani / Binding of serum 37 to linear peptides of protein N of SARS-CoV Urbani / Binding of serum 6 to linear peptide (PEPSCAN-ELISA) / Binding of serum 1a to looped/cyclic peptides of protein N of SARS-CoV Urbani / Binding of serum 1b to looped/cyclic peptides of protein N of SARS-CoV Urbani / Binding of serum 2 to looped/cyclic peptides of protein N of SARS-CoV Urbani / Binding of serum 6 to looped/cyclic peptides of protein N of SARS-CoV Urbani / Binding of serum 37 to looped/cyclic peptides of protein N of SARS-CoV Urbani / Binding of serum 62 to looped/cyclic peptides of protein N of SARS-CoV Urbani / Binding of serum London to looped/cyclic peptides of protein N of SARS-CoV Urbani / Binding of serum SARS-green to looped/cyclic peptides of protein N of SARS-CoV Urbani: unit not given here.

In assay [3] the test system is rabbit serum obtained by immunizing a rabbit with the SARS-CoV strain Frankfurt 1. The class given is binding. The arrangement: Binding of a rabbit serum to linear peptides / Binding of a rabbit serum to looped peptides / Rabbit serum linear peptides / Rabbit serum looped peptides / Binding of a rabbit serum to linear peptides of protein N of SARS-CoV Urbani (Rabbit serum linear peptides) / Binding of a rabbit serum to looped/cyclic peptides of protein N of SARS-CoV Urbani (Rabbit serum looped peptides): unit not given here.

As for ADGTRHTYQLRARSV, in assay [1], the “Binding of Control Serum Blood-Bank to Looped peptides” value is recorded as 0.6, the “Binding of Control serum Blood-bank to linear peptides” value was 0.6, the “Binding of Control serum LUMC to linear peptides” value is given as 0.6 and the “Binding of Control serum LUMC to looped peptides” value worked out at 0.6. Further, in assay [2], the “Binding of serum 1a to linear peptides of protein X4 of SARS-CoV Urbani” value came to 0.7, the “Binding of serum 1a to looped/cyclic peptides of protein X4 of SARS-CoV Urbani” value turned out to be 0.7, the “Binding of serum 1b to linear peptides of protein X4 of SARS-CoV Urbani” value came out at 0.6 and the “Binding of serum 1b to looped/cyclic peptides of protein X4 of SARS-CoV Urbani” value was 0.4. Also, in assay [2], the “Binding of serum 2 to linear peptides of protein X4 of SARS-CoV Urbani” value is recorded as 0.6, the “Binding of serum 2 to looped/cyclic peptides of protein X4 of SARS-CoV Urbani” value came out at 0.6, the “Binding of serum 6 to linear peptides of protein X4 of SARS-CoV Urbani” value is given as 0.5 and the “Binding of serum 6 to looped/cyclic peptides of protein X4 of SARS-CoV Urbani” value came to 0.7. Also, in assay [2], the “Binding of serum 37 to linear peptides of protein X4 of SARS-CoV Urbani” value stood at 0.7, the “Binding of serum 37 to looped/cyclic peptides of protein X4 of SARS-CoV Urbani” value is recorded as 0.7, the “Binding of serum 62 to linear peptides of protein X4 of SARS-CoV Urbani” value is 0.7 and the “Binding of serum 62 to looped/cyclic peptides of protein X4 of SARS-CoV Urbani” value was found to be 0.6. Also, in assay [2], the “Binding of serum London to linear peptides of protein X4 of SARS-CoV Urbani” value is reported as 0.7, the “Binding of serum London to looped/cyclic peptides of protein X4 of SARS-CoV Urbani” value came to 0.3, the “Binding of serum SARS-green to linear peptides of protein X4 of SARS-CoV Urbani” value turned out to be 0.6 and the “Binding of serum SARS-green to looped/cyclic peptides of protein X4 of SARS-CoV Urbani” value was 0.5. In assay [2], the “Binding of serum SARS-yellow to linear peptides of protein X4 of SARS-CoV Urbani” value is listed as 0.7 and the “Binding of serum SARS-yellow to looped/cyclic peptides of protein X4 of SARS-CoV Urbani” value is given as 0.6. Moreover, the “Recognition of the peptide by the rabbit serum” value in assay [3] is given as “recognized”.

Take AFACADGTRHTYQLR: in assay [1], the “Binding of Control Serum Blood-Bank to Looped peptides” value is recorded as 0.7, the “Binding of Control serum Blood-bank to linear peptides” value is recorded as 0.6, the “Binding of Control serum LUMC to linear peptides” value is 0.5 and the “Binding of Control serum LUMC to looped peptides” value turned out to be 0.8. Further, in assay [2], the “Binding of serum 1a to linear peptides of protein X4 of SARS-CoV Urbani” value is on record as 0.6, the “Binding of serum 1a to looped/cyclic peptides of protein X4 of SARS-CoV Urbani” value is 0.6, the “Binding of serum 1b to linear peptides of protein X4 of SARS-CoV Urbani” value came out at 0.4 and the “Binding of serum 1b to looped/cyclic peptides of protein X4 of SARS-CoV Urbani” value was 0.4. In assay [2], the “Binding of serum 2 to linear peptides of protein X4 of SARS-CoV Urbani” value is 0.4, the “Binding of serum 2 to looped/cyclic peptides of protein X4 of SARS-CoV Urbani” value is recorded as 0.8, the “Binding of serum 6 to linear peptides of protein X4 of SARS-CoV Urbani” value is 0.5 and the “Binding of serum 6 to looped/cyclic peptides of protein X4 of SARS-CoV Urbani” value is 0.9. In assay [2], the “Binding of serum 37 to linear peptides of protein X4 of SARS-CoV Urbani” value is 0.6, the “Binding of serum 37 to looped/cyclic peptides of protein X4 of SARS-CoV Urbani” value is 0.6, the “Binding of serum 62 to linear peptides of protein X4 of SARS-CoV Urbani” value is reported as 0.7 and the “Binding of serum 62 to looped/cyclic peptides of protein X4 of SARS-CoV Urbani” value came out at 0.5. In assay [2], the “Binding of serum London to linear peptides of protein X4 of SARS-CoV Urbani” value stood at 0.6, the “Binding of serum London to looped/cyclic peptides of protein X4 of SARS-CoV Urbani” value was determined as 0.4, the “Binding of serum SARS-green to linear peptides of protein X4 of SARS-CoV Urbani” value is listed as 0.4 and the “Binding of serum SARS-green to looped/cyclic peptides of protein X4 of SARS-CoV Urbani” value was 0.5. For the same sequence, in assay [2], the “Binding of serum SARS-yellow to linear peptides of protein X4 of SARS-CoV Urbani” value turned out to be 0.2 and the “Binding of serum SARS-yellow to looped/cyclic peptides of protein X4 of SARS-CoV Urbani” value is on record as 0.4. In addition, in assay [3], the “Rabbit serum linear peptides” value was 0.5 and the “Rabbit serum looped peptides” value was found to be 0.1.

As to AGGALIARCWYLHEG, in assay [1], the “Binding of Control Serum Blood-Bank to Looped peptides” value is listed as 0.7, the “Binding of Control serum Blood-bank to linear peptides” value came out at 0.6, the “Binding of Control serum LUMC to linear peptides” value is on record as 0.5 and the “Binding of Control serum LUMC to looped peptides” value was determined as 0.4. In assay [2], the “Binding of serum 1a to linear peptides of protein X5 of SARS-CoV Urbani” value was found to be 0.8, the “Binding of serum 1a to looped/cyclic peptides of protein X5 of SARS-CoV Urbani” value came out at 0.7, the “Binding of serum 1b to linear peptides of protein X5 of SARS-CoV Urbani” value was found to be 0.7 and the “Binding of serum 1b to looped/cyclic peptides of protein X5 of SARS-CoV Urbani” value was 0.4. For the same sequence, in assay [2], the “Binding of serum 2 to linear peptides of protein X5 of SARS-CoV Urbani” value is 0.5, the “Binding of serum 2 to looped/cyclic peptides of protein X5 of SARS-CoV Urbani” value was found to be 0.5, the “Binding of serum 6 to linear peptides of protein X5 of SARS-CoV Urbani” value amounted to 0.7 and the “Binding of serum 6 to looped/cyclic peptides of protein X5 of SARS-CoV Urbani” value came out at 0.5. In addition, in assay [2], the “Binding of serum 37 to linear peptides of protein X5 of SARS-CoV Urbani” value turned out to be 0.8, the “Binding of serum 37 to looped/cyclic peptides of protein X5 of SARS-CoV Urbani” value is reported as 0.6, the “Binding of serum 62 to linear peptides of protein X5 of SARS-CoV Urbani” value amounted to 0.9 and the “Binding of serum 62 to looped/cyclic peptides of protein X5 of SARS-CoV Urbani” value amounted to 0.5. In assay [2], the “Binding of serum London to linear peptides of protein X5 of SARS-CoV Urbani” value stood at 0.7, the “Binding of serum London to looped/cyclic peptides of protein X5 of SARS-CoV Urbani” value is on record as 0.2, the “Binding of serum SARS-green to linear peptides of protein X5 of SARS-CoV Urbani” value was determined as 0.7 and the “Binding of serum SARS-green to looped/cyclic peptides of protein X5 of SARS-CoV Urbani” value amounted to 0.4. In assay [2], the “Binding of serum SARS-yellow to linear peptides of protein X5 of SARS-CoV Urbani” value is 0.5 and the “Binding of serum SARS-yellow to looped/cyclic peptides of protein X5 of SARS-CoV Urbani” value stood at 0.4. Also, in assay [3], the “Rabbit serum linear peptides” value is 0.5 and the “Rabbit serum looped peptides” value is given as 0.4.

Take AISPKFTTSLSLHKL: in assay [1], the “Binding of Control Serum Blood-Bank to Looped peptides” value was 0.8, the “Binding of Control serum Blood-bank to linear peptides” value stood at 0.8, the “Binding of Control serum LUMC to linear peptides” value is 0.6 and the “Binding of Control serum LUMC to looped peptides” value came out at 0.6. Also, in assay [2], the “Binding of serum 1a to linear peptides of protein X2” value is listed as 0.6, the “Binding of serum 1a to looped/cyclic peptides of protein X2 of SARS-CoV Urbani” value is reported as 0.6, the “Binding of serum 1b to linear peptides of protein X2” value worked out at 0.5 and the “Binding of serum 1b to looped/cyclic peptides of protein X2 of SARS-CoV Urbani” value amounted to 0.6. For the same sequence, in assay [2], the “Binding of serum 2 to linear peptides of protein X2” value is reported as 0.5, the “Binding of serum 2 to looped/cyclic peptides of protein X2 of SARS-CoV Urbani” value came out at 0.4, the “Binding of serum 6 to linear peptides of protein X2” value is listed as 0.6 and the “Binding of serum 6 to looped/cyclic peptides of protein X2 of SARS-CoV Urbani” value is given as 0.8. In assay [2], the “Binding of serum 37 to linear peptides of protein X2” value came out at 0.6, the “Binding of serum 37 to looped/cyclic peptides of protein X2 of SARS-CoV Urbani” value amounted to 0.5, the “Binding of serum 62 to linear peptides of protein X2” value stood at 0.6 and the “Binding of serum 62 to looped/cyclic peptides of protein X2 of SARS-CoV Urbani” value is 0.7. In assay [2], the “Binding of serum London to linear peptides of protein X2” value worked out at 0.5, the “Binding of serum London to looped/cyclic peptides of protein X2 of SARS-CoV Urbani” value is 1.1, the “Binding of serum SARS-green to linear peptides of protein X2” value was determined as 0.4 and the “Binding of serum SARS-green to looped/cyclic peptides of protein X2 of SARS-CoV Urbani” value was determined as 0.3. Further, in assay [2], the “Binding of serum SARS-yellow to linear peptides of protein X2” value stood at 0.5 and the “Binding of serum SARS-yellow to looped/cyclic peptides of protein X2 of SARS-CoV Urbani” value is 0.4. Moreover, in assay [3], the “Binding of a rabbit serum to linear peptides” value is recorded as 0.2 and the “Binding of a rabbit serum to looped peptides” value came to 0.4.
